Test results reported in patent publication US11771086B2, “Pest control composition including novel iminopyridine derivative” (priority 2012, dated 2023).

Assays:
Assay type in all cases: in vivo
Plutella xylostella = assay: Reference Test Example 1 Pest control test of Plutella xylostella (foliar treatment, single agent); set-up: Plutella xylostella (Reference Test Example 1), mortality of larvae: concentration or dose not given beside the values; settings: foliar treatment, single agent
Source text: After an air drying process, second instar larvae were released thereto. […] Test in duplicate.

Aphis gossypii = assay: Reference Test Example 3 Pest control test of Aphis gossypii (foliar treatment, single agent); set-up: Aphis gossypii (Reference Test Example 3), mortality of larvae: concentration or dose not given beside the values; settings: foliar treatment, single agent
Laodelphax striatella = assay: Reference Test Example 18 Pest control test of Laodelphax striatella (wheat seedling root treatment); settings: wheat seedling roots treated; four days after release; 20 μg/seedling
Protocol: The drug was absorbed from the roots for 72 hours, and then ten second instar larvae of Laodelphax striatella were each released thereto. […] The test was performed in duplicate.

| Structure (SMILES) | Plutella xylostella (Reference Test Example 1), mortality of larvae (Plutella xylostella) [%] | Aphis gossypii (Reference Test Example 3), mortality of larvae (Aphis gossypii) [%] | Laodelphax striatella (Reference Test Example 18), mortality of larvae (Laodelphax striatella) [%] |
| --- | --- | --- | --- |
| FC(F)C(=S)N=c1ccccn1Cc1ccc(Cl)nc1 [Compound 1-21] | 80 | 100 | 100 |
| FC(F)(Cl)C(=S)N=c1ccccn1Cc1ccc(Cl)nc1 [Compound 1-22] | 100 |  | 100 |
| FC(F)(F)C(F)(F)C(=S)N=c1ccccn1Cc1ccc(Cl)nc1 [Compound 1-23] | 100 |  | 100 |
| C/N=C(/N=c1\ccccn1Cc1ccc(Cl)nc1)C(F)(F)F [Compound 1-42, N-[1-((6-chloropyridin-3-yl)methyl)pyridin-2(1H)-ylidene]-2,2,2-trifluoro-N′-methylacetimidamide] | 100 | 100 | 100 |
| CSCCN=C(N=c1ccccn1Cc1ccc(Cl)nc1)C(F)(F)F [Compound 1-150] | 100 | 100 | 80 |
| O=C(/N=c1\ccccn1Cc1ccc(F)nc1)C(F)F [Compound 3-3, 2,2-difluoro-N-[1-((6-fluoropyridin-3-yl)methyl)pyridin-2(1H)-ylidene]acetamide] | 50 | 100 | 80 |
| O=C(N=c1ccccn1Cc1ccc(F)nc1)C(F)(F)Cl [Compound 3-4] | 100 | 100 | 100 |
| O=C(N=c1ccccn1Cc1ccc(F)nc1)C(F)(F)C(F)(F)F [Compound 3-5] | 100 | 55 | 80 |
| Fc1ccc(Cn2ccccc2=NC(=S)C(F)(F)F)cn1 [Compound 3-20] | 55 | 100 | 80 |
| O=C(N=c1ccccn1Cc1ccc(Br)nc1)C(F)F [Compound 4-3] | 100 |  | 100 |
| O=C(N=c1ccccn1Cc1ccc(Br)nc1)C(F)(F)Cl [Compound 4-4] | 100 |  | 100 |
| O=C(N=c1ccccn1Cc1ccc(Br)nc1)C(F)(F)C(F)(F)F [Compound 4-5] | 100 | 100 | 100 |
| FC(F)(F)C(=S)N=c1ccccn1Cc1ccc(Br)nc1 [Compound 4-20] | 100 | 100 | 100 |
| O=C(N=c1ccccn1Cc1cnc(Cl)c(F)c1)C(F)F [Compound 5-3] | 100 |  | 100 |
| O=C(N=c1ccccn1Cc1cnc(Cl)c(F)c1)C(F)(F)Cl [Compound 5-4] | 100 |  | 100 |
| Fc1cc(Cn2ccccc2=NC(=S)C(F)(F)F)cnc1Cl [Compound 5-20] | 100 |  | 100 |
| O=C(N=c1ccccn1Cc1cnc(Cl)nc1)C(F)F [Compound 6-3] | 80 |  | 100 |
| O=C(N=c1ccccn1Cc1cnc(Cl)nc1)C(F)(F)Cl [Compound 6-4] | 90 | 100 | 100 |
| N#Cc1cccn(Cc2ccc(Cl)nc2)c1=NC(=O)C(F)(F)F [Compound 102-2] | 10 | 100 | 100 |
| O=C(N=c1ccccn1Cc1ccc(Cl)nc1)C(F)(F)F [Compound P-212] | 100 | 100 | 100 |
| O=C(N=c1ccccn1Cc1cnc(Cl)s1)C(F)(F)F [Compound P-213] | 100 | 100 | 100 |
| O=C(N=c1ccc(Cl)cn1Cc1ccc(Cl)nc1)C(F)(F)F [Compound P-215] | 100 | 80 | 75 |
| O=C(N=c1ccc(F)cn1Cc1ccc(Cl)nc1)C(F)(F)F [Compound P-216] | 100 | 95 | 100 |

| Structure (SMILES) | Plutella xylostella (Reference Test Example 1), mortality of larvae (Plutella xylostella) [%] | Aphis gossypii (Reference Test Example 3), mortality of larvae (Aphis gossypii) [%] | Laodelphax striatella (Reference Test Example 18), mortality of larvae (Laodelphax striatella) [%] |
| --- | --- | --- | --- |
| O=C(N=c1ccc(Cl)cn1Cc1cnc(Cl)s1)C(F)(F)F [Compound P-218] | 100 | 60 |  |
| O=C(N=c1ccc(F)cn1Cc1cnc(Cl)s1)C(F)(F)F [Compound P-219] | 80 | 85 |  |
| Cc1ccn(Cc2ccc(Cl)nc2)c(=NC(=O)C(F)(F)F)c1 [Compound P-222] |  | 100 | 100 |
| Cc1ccc(=NC(=O)C(F)(F)F)n(Cc2ccc(Cl)nc2)c1 [Compound P-223] |  | 75 | 75 |
| O=C(N=c1ccccn1Cc1ccc(Cl)cc1)C(F)(F)F [Compound P-225] |  | 90 |  |
| O=C(N=c1ccccn1Cc1cccnc1)C(F)(F)F [Compound P-226] | 60 | 100 |  |
| O=C(N=c1ccccn1Cc1cnc(Cl)c(F)c1)C(F)(F)F [Compound P-227] | 100 | 100 | 100 |
| O=C(N=c1ccccn1Cc1ccc(C(F)(F)F)nc1)C(F)(F)F [Compound P-228] | 30 | 95 | 100 |
| O=C(N=c1ccccn1Cc1ccc(F)nc1)C(F)(F)F [Compound P-229] | 100 | 100 | 100 |
| O=C(N=c1ccccn1Cc1cnc(Cl)c(Cl)c1)C(F)(F)F [Compound P-230] | 100 | 100 |  |
| O=C(N=c1ccccn1Cc1ccc(Br)nc1)C(F)(F)F [Compound P-231] | 100 | 100 | 100 |
| O=C(N=c1cc(F)ccn1Cc1ccc(Cl)nc1)C(F)(F)F [Compound P-232] |  | 80 |  |
| O=C(N=c1c(F)cccn1Cc1ccc(Cl)nc1)C(F)(F)F [Compound P-233] |  | 100 | 75 |
| O=C(N=c1ccccn1Cc1ccc(Cl)nc1)C(Cl)Cl [Compound P-234] | 100 | 100 | 100 |
| O=C(N=c1ccccn1Cc1ccc(Cl)nc1)C(Cl)(Cl)Cl [Compound P-235] | 100 | 95 | 75 |
| O=C(CCl)N=c1ccccn1Cc1ccc(Cl)nc1 [Compound P-236] |  | 100 |  |
| O=C(N=c1ccccn1Cc1ccc(Cl)nc1)C(F)F [Compound P-238] | 100 | 100 | 100 |
| O=C(N=c1ccccn1Cc1ccc(Cl)nc1)C(F)(F)Cl [Compound P-239] | 100 | 100 | 100 |
| O=C(N=c1ccccn1Cc1ccc(Cl)nc1)C(Cl)Br (stereo not drawn) [Compound P-240] |  | 100 | 100 |
| O=C(N=c1ccccn1Cc1ccc(Cl)nc1)C(Br)Br [Compound P-241] |  | 100 | 100 |
| O=C(N=c1ccccn1Cc1ccc(Cl)nc1)C(F)(F)C(F)(F)F [Compound P-242] | 100 | 100 | 100 |
| O=C(CBr)N=c1ccccn1Cc1ccc(Cl)nc1 [Compound P-244] |  | 100 | 100 |
